# From PubChem BioAssay (NCI)
#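 At the GI50, growth is halved. TGI: total growth inhibition.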
# Assays:
# Experiment in all cases: NCI anticancer screen, dose series, 384-well format
# 786-0 renal = system: 786-0 renal
# A498 renal = system: A498 renal
# ACHN renal = system: ACHN renal
# BT-549 breast = system: BT-549 breast
# CAKI-1 renal = system: CAKI-1 renal
# CCRF-CEM leukemia = system: CCRF-CEM leukemia
# DU-145 prostate = system: DU-145 prostate
# EKVX NSCLC = system: EKVX NSCLC
# HOP-62 NSCLC = system: HOP-62 NSCLC
# HOP-92 NSCLC = system: HOP-92 NSCLC
# HT29 colon = system: HT29 colon
# IGROV1 ovarian = system: IGROV1 ovarian
# K-562 leukemia = system: K-562 leukemia
# KM12 colon = system: KM12 colon
# LOX IMVI melanoma = system: LOX IMVI melanoma
# M14 melanoma = system: M14 melanoma
# MALME-3M melanoma = system: MALME-3M melanoma
# MCF7 breast = system: MCF7 breast
# MDA-MB-231 breast = system: MDA-MB-231 breast
# MDA-MB-468 breast = system: MDA-MB-468 breast
# NCI-H226 lung = system: NCI-H226 lung
# NCI-H23 lung = system: NCI-H23 lung
# NCI-H322M lung = system: NCI-H322M lung
# NCI/ADR-RES ovarian = system: NCI/ADR-RES ovarian
# OVCAR-3 ovarian = system: OVCAR-3 ovarian
# OVCAR-4 ovarian = system: OVCAR-4 ovarian
# PC-3 prostate = system: PC-3 prostate
# RPMI-8226 leukemia = system: RPMI-8226 leukemia
# RXF 393 renal = system: RXF 393 renal
# SF-268 CNS = system: SF-268 CNS
# SF-295 CNS = system: SF-295 CNS
# SF-539 CNS = system: SF-539 CNS
# SK-MEL-2 melanoma = system: SK-MEL-2 melanoma
# SK-MEL-28 melanoma = system: SK-MEL-28 melanoma
# SK-MEL-5 melanoma = system: SK-MEL-5 melanoma
# SK-OV-3 ovarian = system: SK-OV-3 ovarian
# SN12C renal = system: SN12C renal
# SNB-19 CNS = system: SNB-19 CNS
# SNB-75 CNS = system: SNB-75 CNS
# SR leukemia = system: SR leukemia
# SW-620 colon = system: SW-620 colon
# T-47D breast = system: T-47D breast
# TK-10 renal = system: TK-10 renal
# U251 glioblastoma = system: U251 glioblastoma
# UACC-257 melanoma = system: UACC-257 melanoma
# UACC-62 melanoma = system: UACC-62 melanoma
# UO-31 renal = system: UO-31 renal
structure (smiles),measurement,setting,value
C[C@H](NC(=O)CCC(F)(F)F)C(=O)N[C@@H]1C(=O)N(CCO)c2ncccc2-c2ccccc21,GI50,786-0 renal,> 100 µM
same,TGI,786-0 renal,> 100 µM
same,GI50,A498 renal,> 100 µM
same,TGI,A498 renal,> 100 µM
same,GI50,ACHN renal,> 100 µM
same,TGI,ACHN renal,> 100 µM
same,GI50,BT-549 breast,> 100 µM
same,TGI,BT-549 breast,> 100 µM
same,GI50,CAKI-1 renal,> 100 µM
same,TGI,CAKI-1 renal,> 100 µM
same,GI50,CCRF-CEM leukemia,22.9 µM
same,TGI,CCRF-CEM leukemia,> 56.2 µM
same,GI50,DU-145 prostate,> 100 µM
same,TGI,DU-145 prostate,> 100 µM
same,GI50,EKVX NSCLC,> 100 µM
same,TGI,EKVX NSCLC,> 100 µM
same,GI50,HOP-62 NSCLC,> 100 µM
same,TGI,HOP-62 NSCLC,> 100 µM
same,GI50,HOP-92 NSCLC,> 100 µM
same,TGI,HOP-92 NSCLC,> 100 µM
same,GI50,HT29 colon,> 100 µM
same,TGI,HT29 colon,> 100 µM
same,GI50,IGROV1 ovarian,> 100 µM
same,TGI,IGROV1 ovarian,> 100 µM
same,GI50,K-562 leukemia,41.6 µM
same,TGI,K-562 leukemia,> 91.3 µM
same,GI50,KM12 colon,> 100 µM
same,TGI,KM12 colon,> 100 µM
same,GI50,LOX IMVI melanoma,43.3 µM
same,TGI,LOX IMVI melanoma,> 100 µM
same,GI50,M14 melanoma,> 100 µM
same,TGI,M14 melanoma,> 100 µM
same,GI50,MALME-3M melanoma,> 100 µM
same,TGI,MALME-3M melanoma,> 100 µM
same,GI50,MCF7 breast,> 100 µM
same,TGI,MCF7 breast,> 100 µM
same,GI50,MDA-MB-231 breast,> 100 µM
same,TGI,MDA-MB-231 breast,> 100 µM
same,GI50,MDA-MB-468 breast,> 100 µM
same,TGI,MDA-MB-468 breast,> 100 µM
same,GI50,NCI-H226 lung,> 100 µM
same,TGI,NCI-H226 lung,> 100 µM
same,GI50,NCI-H23 lung,> 100 µM
same,TGI,NCI-H23 lung,> 100 µM
same,GI50,NCI-H322M lung,> 100 µM
same,TGI,NCI-H322M lung,> 100 µM
same,GI50,NCI/ADR-RES ovarian,> 100 µM
same,TGI,NCI/ADR-RES ovarian,> 100 µM
same,GI50,OVCAR-3 ovarian,> 100 µM
same,TGI,OVCAR-3 ovarian,> 100 µM
same,GI50,OVCAR-4 ovarian,> 100 µM
same,TGI,OVCAR-4 ovarian,> 100 µM
same,GI50,PC-3 prostate,> 100 µM
same,TGI,PC-3 prostate,> 100 µM
same,GI50,RPMI-8226 leukemia,49.8 µM
same,TGI,RPMI-8226 leukemia,> 100 µM
same,GI50,RXF 393 renal,> 100 µM
same,TGI,RXF 393 renal,> 100 µM
same,GI50,SF-268 CNS,> 100 µM
same,TGI,SF-268 CNS,> 100 µM
same,GI50,SF-295 CNS,> 100 µM
same,TGI,SF-295 CNS,> 100 µM
same,GI50,SF-539 CNS,> 100 µM
same,TGI,SF-539 CNS,> 100 µM
same,GI50,SK-MEL-2 melanoma,> 100 µM
same,TGI,SK-MEL-2 melanoma,> 100 µM
same,GI50,SK-MEL-28 melanoma,> 100 µM
same,TGI,SK-MEL-28 melanoma,> 100 µM
same,GI50,SK-MEL-5 melanoma,> 100 µM
same,TGI,SK-MEL-5 melanoma,> 100 µM
same,GI50,SK-OV-3 ovarian,> 100 µM
same,TGI,SK-OV-3 ovarian,> 100 µM
same,GI50,SN12C renal,> 100 µM
same,TGI,SN12C renal,> 100 µM
same,GI50,SNB-19 CNS,> 100 µM
same,TGI,SNB-19 CNS,> 100 µM
same,GI50,SNB-75 CNS,> 100 µM
same,TGI,SNB-75 CNS,> 100 µM
same,GI50,SR leukemia,64 µM
same,TGI,SR leukemia,> 100 µM
same,GI50,SW-620 colon,87.1 µM
same,TGI,SW-620 colon,> 100 µM
same,GI50,T-47D breast,> 100 µM
same,TGI,T-47D breast,> 100 µM
same,GI50,TK-10 renal,> 100 µM
same,TGI,TK-10 renal,> 100 µM
same,GI50,U251 glioblastoma,> 100 µM
same,TGI,U251 glioblastoma,> 100 µM
same,GI50,UACC-257 melanoma,> 100 µM
same,TGI,UACC-257 melanoma,> 100 µM
same,GI50,UACC-62 melanoma,> 100 µM
same,TGI,UACC-62 melanoma,> 100 µM
same,GI50,UO-31 renal,> 100 µM
same,TGI,UO-31 renal,> 100 µM
